Assay results published in patent US11629141B2, “Proteasome inhibitors and uses thereof” (CORNELL UNIVERSITY, priority 2015, dated 2023).
Entries after “also recorded” stand apart in the source; their conditions may differ.

Legend:
[1] = tested on: Pf20S β5; assay: Labeling of Pf20S active subunits by activity probe MV151 in Pf lysates; format: biochemical, P. falciparum; conditions: 1 hour with inhibitor, then MV151 (2 μM) 1 hour
Protocol: Pf lysates were incubated with inhibitors at indicated concentrations for 1 hour prior to incubation with MV151 (2 μM) for an additional hour. SDS pages were scanned on a Typhoon fluorescent scanner. […] BTZ was used as a positive control.

[2] = biological target: T1, human immunoproteasome β5i (Homo sapiens, UniProt P28062); assay: IC50 against chymotryptic β5i activity of human immunoproteasome (96-well plate, Ac-ANW-AMC); format: biochemical; conditions: β5i; substrate Ac-ANW-AMC; read-out: IC50 Hu i-20S (Ac-ANW-AMC)
T1 construct: purchased Boston Biochem Inc
Protocol: A 96-well-plate assays were used to determine the IC50s against the chymotryptic β5 activities of the proteasomes. Both human constitutive proteasome and immunoproteasome were purchased from Boston Biochem Inc. 1 μL of 100× compound in DMSO at designated concentrations were spotted at the bottom of the wells. DMSO was used as a control. […] The hydrolysis of the substrate over time in each well was monitored at excitation 360 nm, emission 460 nm for 90 minutes. IC50s were estimated by fitting the velocities of hydrolysis against compound concentrations using PRISM. […] SDS (0.02%) was used as activator, and 0.01% BSA was used in the reaction buffer.

[3] = tested on: Pf Gametocytes; assay: Gametocyte killing assay (DilC1(5), flow cytometry); format: cell-based; conditions: Plasmodium falciparum; NF54 peg4-tdTomato, 72 hour incubation; read-out: EC50 against Pf Gametocytes
Protocol: Asexual replication of NF54 peg4-tdTomato parasites was eliminated by treating with 50 mM GlcNAc and 20 U/mL Heparin for 3 days. NF54 peg4-tdTomato parasites then were maintained using standard culture techniques. Gametocytes were induced synchronously according to Fivelman et al., “Improved Synchronous Production of Plasmodium Falciparum Gametocytes in Vitro,” Mol Biochemo Parasitol. 154(1):119-123 (2007), which is hereby incorporated by reference in its entirety. Asexual replication was eliminated by treating with 50 mM GlcNAc for 3 days. Gametocyte killing assays were setup on days 5 and 10 in triplicate 96-well format at 1% hematocrit and 2% gametocytemia. Compounds were setup in triplicate and serially diluted 3-fold. In addition, 6 solvent controls (DMSO) were distributed evenly across the plate. Following a 72 hour incubation, Stage III-IV (Day 5-7) and Stage IV-V (Day 10-12), (start the incubation in the afternoon on Day 5 and Day 10, take out plate for assay on Day8 and Day13 afternoon) cultures were stained with 16 nM Hoechst 33342 and 50 nM DilC1(5) for 30 min at 37 C. Using a Cytek DxP12 flow cytometer, gametocytemia was determined by gating for DNA+, hemozoin-high cells and gametocyte viability was inferred based on mitochondrial membrane potential-dependent accumulation of DilC1(5) for 2000-3000 gametocytes (Tanaka et al., “Potent Plasmodium Falciparum Gametocytocidal Activity of Diaminonaphthoquinones, Lead Antimalarial Chemotypes Identified in an Antimalarial Compound Screen,” Antimicrob. Agents Chemother. 2015, 59:1389 (2015), which is hereby incorporated by reference in its entirety). Mean DilC1(5) signal was normalized to solvent control and the overall minimum and used to calculate the EC50 (FIG. 3 and Table 4).

[4] = biological target: T2, human constitutive proteasome β5c (Homo sapiens, UniProt P28074); assay: IC50 against chymotryptic β5c activity of human constitutive proteasome (96-well plate, Suc-LLVY-AMC); format: biochemical; conditions: β5c; substrate Suc-LLVY-AMC; read-out: IC50 Hu c-20S (Suc-LLVY-AMC)
T2 construct: purchased Boston Biochem Inc
Protocol: A 96-well-plate assays were used to determine the IC50s against the chymotryptic β5 activities of the proteasomes. Both human constitutive proteasome and immunoproteasome were purchased from Boston Biochem Inc. 1 μL of 100× compound in DMSO at designated concentrations were spotted at the bottom of the wells. DMSO was used as a control. Final concentrations of the inhibitors were from 100 μM to 0.098 μM. The hydrolysis of the substrate over time in each well was monitored at excitation 360 nm, emission 460 nm for 90 minutes. IC50s were estimated by fitting the velocities of hydrolysis against compound concentrations using PRISM. […] Suc-LLVY-AMC was used for βc at final concentration of 25 μM, and Ac-ANW-AMC for b5i at final concentration of 15 μM. SDS (0.02%) was used as activator, and 0.01% BSA was used in the reaction buffer.
The foregoing features of these AsnEDA encouraged a further round of SAR studies (Table 5) based on varying the carboxylic acid at the ethylenediamine, the N-cap at the Asn, and the side chain of the Asn, based on PKS21004. All compounds listed in the Table 5 were synthesized as described in Examples 6-77. All final compounds were confirmed by NMR and HRMS. IC50s of all compounds against β5i and β5c (Table 5), β1i, β2i, β1c and β2c were determined following a reported method (Lin et al., “N,C-Capped Dipeptides With Selectivity for Mycobacterial Proteasome Over Human Proteasomes: Role of S3 and S1Binding Pockets,” J Am Chem Soc. 135:9968-9971 (2013), which is hereby incorporated by reference in its entirety). […] The [1,1′-biphenyl]-3-carboxamide of PKS21004 was then modified with the following substituents: 4′-fluoro (PKS21026), 4′-cyano (PKS21028), 4-fluoro (PKS21196), 4,3′-difluoro (PKS21195) and 4,2′-difluoro (PKS21187).

[5] = tested on: Plasmodium falciparum; assay: Growth of Plasmodium falciparum in red blood cells (SYBR Green, 72 hours); format: cell-based; conditions: Erythrocyte, P.f. 3D7, growth in red blood cells, read-out: EC50 (nM) (P.f.)
Protocol: Continuous in vitro cultures of Plasmodium falciparum: were maintained in human red blood cells (RBC) diluted to a hematocrit of 5% in RPMI 1640 medium with HEPES and Hypoxanthine and completed with 0.5% Albumax II (Invitrogen), 0.25% sodium bicarbonate, and 0.1 mg/ml gentamicin. Parasites were incubated at 37° C. in a gas mixture of 5% oxygen, 5% carbon dioxide, and 90% nitrogen.
Parasite sensitivity to novel compounds were determined using a SYBR Green (Invitrogen S1046) drug assay protocol. P. falciparum of various clinic stains were cultured with compounds at concentrations in a series of dilution in a clear, sterile 96-well plate for 72 hours. Subsequently, 150 μl of the cultures were transferred to a black 96-well plate and placed in the freezer for red blood cell lysis. The plates were thawed and suspended in a Sybr Green Lysis buffer. GraphPad Prism was used to analyze the raw data collected […]. Drug concentrations were converted to logarithms, normalized, and then curve fitted by non-linear regression to obtain EC50 values.
Plasmodium falciparum: parasites were cultured in human red cells. Drug assays were run in 96 well plates at a total volume of 200 μl. Assays were set up at a starting parasitemia (percent of infected red cells) of 0.5%. Test compounds were plated at concentrations of 2778 nM to 0.4 nM. The test plates were grown under standard low oxygen conditions at 37° C. for 72 hours. At that time the plates were prepared for growth determination, first the plates were frozen and thawed to lyse the red blood cells, 150 μl of the lysed thawed culture was transferred to a black 96 well plate, and mixed in a lysis buffer with SYBR green DNA dye. The fluorescence of each well was recorded in a plate reader with excitation wavelength 490 nm and emission wavelength 530 nm and normalized relative to DMSO control. The EC50s were determined using Prism software.

IC50 [2]	IC50 [4]	Compound	labeling of Pf20S β5 by MV151 [1]	EC50 [3]	EC50 [5]
15 nM	187 nM	Cc1ccc(S(=O)(=O)N[C@@H](CC(=O)NC(C)(C)C)C(=O)NCCNC(=O)c2ccccc2O)cc1 [PKS21292]			2.9 nM
19 nM	510 nM	Cc1ccc(S(=O)(=O)N[C@@H](CC(=O)NC(C)(C)C)C(=O)NCCNC(=O)c2cc(-c3ccccc3)ccn2)cc1 [PKS21229]			1 nM
110 nM	1160 nM	CC(C)(C)NC(=O)C[C@H](NC(=O)CCc1ccccc1)C(=O)NCCNC(=O)c1cccc(-c2ccc(F)cc2)c1 [PKS21026]			100 nM

Compound	IC50 [2]	IC50 [4]	labeling of Pf20S β5 by MV151 [1]	EC50 [3]	EC50 [5]
Cc1cc(C(=O)N[C@@H](CC(=O)NC(C)(C)C)C(=O)NCCNC(=O)c2cccc(-c3cc[nH]n3)c2)no1 [PKS21287]	1150 nM	21100 nM	block labeling; also recorded: dose-dependently inhibited the labeling	206 nM	34 nM
